Laboratory results as given in PubChem BioAssay AID2060508 (Molecular Pharmacology Branch, DTP, NCI, 2025).

The molecules below were run on 454973-116-R2-J3-PDC spheroids, viability, % test/control (assay: Anticancer human tumor 454973-116-R2-J3-PDC patient-derived pancreatic carcinoma cell line growth inhibition [GQUAD]). Details: curve of first compound; second compound 0.0316 µM; spheroids with HUVEC and MSC.
How it was run: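 Multi-cell-type spheroids of tumor cells with HUVEC and mesenchymal stem cells, treated with drug combinations. Concentrations descend in half-log steps from near clinical Cmax, or from 10 microM where Cmax is unknown; viability read-out.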
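Further: spheroids exposed to compounds for seven days.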

Row | Structure (SMILES) | IC50
1 | C=CC(=O)N1CCN(c2nc(=O)n(-c3c(C)ccnc3C(C)C)c3nc(-c4c(O)cccc4F)c(F)cc23)C(C)C1 (stereo unspecified) + CN(C)c1ccc(Nc2c3ccc(NC(=O)CCN4CCCC4)cc3nc3cc(NC(=O)CCN4CCCC4)ccc23)cc1 | > 10 µM
2 | CC1COCCN1c1cc(C2(O)CC3CCC(C2)O3)c2cnn(-c3ccn[nH]3)c2n1 (stereo unspecified) + CN(C)c1ccc(Nc2c3ccc(NC(=O)CCN4CCCC4)cc3nc3cc(NC(=O)CCN4CCCC4)ccc23)cc1 | 0.176 µM
3 | Cc1cccc(N(C)C(=O)C2C(O)CCN2c2nc(C)cc(C(F)(F)F)c2C#N)c1 (stereo unspecified) + CN(C)c1ccc(Nc2c3ccc(NC(=O)CCN4CCCC4)cc3nc3cc(NC(=O)CCN4CCCC4)ccc23)cc1 | > 10 µM
4 | Cn1ncnc1[C@H]1c2n[nH]c(=O)c3cc(F)cc(c23)N[C@@H]1c1ccc(F)cc1 + CN(C)c1ccc(Nc2c3ccc(NC(=O)CCN4CCCC4)cc3nc3cc(NC(=O)CCN4CCCC4)ccc23)cc1 | > 0.316 µM
5 | O=C(c1cc(Cc2n[nH]c(=O)c3ccccc23)ccc1F)N1CCN(C(=O)C2CC2)CC1 + CN(C)c1ccc(Nc2c3ccc(NC(=O)CCN4CCCC4)cc3nc3cc(NC(=O)CCN4CCCC4)ccc23)cc1 | > 10 µM

Same assay, conditions: curve of first compound; second compound 0.1 µM; spheroids with HUVEC and MSC

Row | Structure (SMILES) | IC50
6 | C=CC(=O)N1CCN(c2nc(=O)n(-c3c(C)ccnc3C(C)C)c3nc(-c4c(O)cccc4F)c(F)cc23)C(C)C1 (stereo unspecified) + CN(C)c1ccc(Nc2c3ccc(NC(=O)CCN4CCCC4)cc3nc3cc(NC(=O)CCN4CCCC4)ccc23)cc1 | > 10 µM
7 | CC1COCCN1c1cc(C2(O)CC3CCC(C2)O3)c2cnn(-c3ccn[nH]3)c2n1 (stereo unspecified) + CN(C)c1ccc(Nc2c3ccc(NC(=O)CCN4CCCC4)cc3nc3cc(NC(=O)CCN4CCCC4)ccc23)cc1 | 0.174 µM
8 | Cc1cccc(N(C)C(=O)C2C(O)CCN2c2nc(C)cc(C(F)(F)F)c2C#N)c1 (stereo unspecified) + CN(C)c1ccc(Nc2c3ccc(NC(=O)CCN4CCCC4)cc3nc3cc(NC(=O)CCN4CCCC4)ccc23)cc1 | > 10 µM
9 | Cn1ncnc1[C@H]1c2n[nH]c(=O)c3cc(F)cc(c23)N[C@@H]1c1ccc(F)cc1 + CN(C)c1ccc(Nc2c3ccc(NC(=O)CCN4CCCC4)cc3nc3cc(NC(=O)CCN4CCCC4)ccc23)cc1 | > 0.316 µM
10 | O=C(c1cc(Cc2n[nH]c(=O)c3ccccc23)ccc1F)N1CCN(C(=O)C2CC2)CC1 + CN(C)c1ccc(Nc2c3ccc(NC(=O)CCN4CCCC4)cc3nc3cc(NC(=O)CCN4CCCC4)ccc23)cc1 | > 10 µM

Same assay, conditions: curve of first compound; second compound 0.316 µM; spheroids with HUVEC and MSC

Row | Structure (SMILES) | IC50
11 | C=CC(=O)N1CCN(c2nc(=O)n(-c3c(C)ccnc3C(C)C)c3nc(-c4c(O)cccc4F)c(F)cc23)C(C)C1 (stereo unspecified) + CN(C)c1ccc(Nc2c3ccc(NC(=O)CCN4CCCC4)cc3nc3cc(NC(=O)CCN4CCCC4)ccc23)cc1 | > 10 µM
12 | CC1COCCN1c1cc(C2(O)CC3CCC(C2)O3)c2cnn(-c3ccn[nH]3)c2n1 (stereo unspecified) + CN(C)c1ccc(Nc2c3ccc(NC(=O)CCN4CCCC4)cc3nc3cc(NC(=O)CCN4CCCC4)ccc23)cc1 | 0.154 µM
13 | Cc1cccc(N(C)C(=O)C2C(O)CCN2c2nc(C)cc(C(F)(F)F)c2C#N)c1 (stereo unspecified) + CN(C)c1ccc(Nc2c3ccc(NC(=O)CCN4CCCC4)cc3nc3cc(NC(=O)CCN4CCCC4)ccc23)cc1 | > 10 µM
14 | Cn1ncnc1[C@H]1c2n[nH]c(=O)c3cc(F)cc(c23)N[C@@H]1c1ccc(F)cc1 + CN(C)c1ccc(Nc2c3ccc(NC(=O)CCN4CCCC4)cc3nc3cc(NC(=O)CCN4CCCC4)ccc23)cc1 | > 0.316 µM
15 | O=C(c1cc(Cc2n[nH]c(=O)c3ccccc23)ccc1F)N1CCN(C(=O)C2CC2)CC1 + CN(C)c1ccc(Nc2c3ccc(NC(=O)CCN4CCCC4)cc3nc3cc(NC(=O)CCN4CCCC4)ccc23)cc1 | > 10 µM

Same assay, conditions: curve of first compound; second compound 1 µM; spheroids with HUVEC and MSC

Row | Structure (SMILES) | IC50
16 | C=CC(=O)N1CCN(c2nc(=O)n(-c3c(C)ccnc3C(C)C)c3nc(-c4c(O)cccc4F)c(F)cc23)C(C)C1 (stereo unspecified) + CN(C)c1ccc(Nc2c3ccc(NC(=O)CCN4CCCC4)cc3nc3cc(NC(=O)CCN4CCCC4)ccc23)cc1 | > 10 µM
17 | CC1COCCN1c1cc(C2(O)CC3CCC(C2)O3)c2cnn(-c3ccn[nH]3)c2n1 (stereo unspecified) + CN(C)c1ccc(Nc2c3ccc(NC(=O)CCN4CCCC4)cc3nc3cc(NC(=O)CCN4CCCC4)ccc23)cc1 | 0.146 µM
18 | Cc1cccc(N(C)C(=O)C2C(O)CCN2c2nc(C)cc(C(F)(F)F)c2C#N)c1 (stereo unspecified) + CN(C)c1ccc(Nc2c3ccc(NC(=O)CCN4CCCC4)cc3nc3cc(NC(=O)CCN4CCCC4)ccc23)cc1 | > 10 µM
19 | Cn1ncnc1[C@H]1c2n[nH]c(=O)c3cc(F)cc(c23)N[C@@H]1c1ccc(F)cc1 + CN(C)c1ccc(Nc2c3ccc(NC(=O)CCN4CCCC4)cc3nc3cc(NC(=O)CCN4CCCC4)ccc23)cc1 | > 0.316 µM
20 | O=C(c1cc(Cc2n[nH]c(=O)c3ccccc23)ccc1F)N1CCN(C(=O)C2CC2)CC1 + CN(C)c1ccc(Nc2c3ccc(NC(=O)CCN4CCCC4)cc3nc3cc(NC(=O)CCN4CCCC4)ccc23)cc1 | > 10 µM

Same assay, conditions: curve of first compound; second compound 3.16 µM; spheroids with HUVEC and MSC

Row | Structure (SMILES) | IC50
21 | C=CC(=O)N1CCN(c2nc(=O)n(-c3c(C)ccnc3C(C)C)c3nc(-c4c(O)cccc4F)c(F)cc23)C(C)C1 (stereo unspecified) + CN(C)c1ccc(Nc2c3ccc(NC(=O)CCN4CCCC4)cc3nc3cc(NC(=O)CCN4CCCC4)ccc23)cc1 | > 10 µM
22 | CC1COCCN1c1cc(C2(O)CC3CCC(C2)O3)c2cnn(-c3ccn[nH]3)c2n1 (stereo unspecified) + CN(C)c1ccc(Nc2c3ccc(NC(=O)CCN4CCCC4)cc3nc3cc(NC(=O)CCN4CCCC4)ccc23)cc1 | 0.167 µM
23 | Cc1cccc(N(C)C(=O)C2C(O)CCN2c2nc(C)cc(C(F)(F)F)c2C#N)c1 (stereo unspecified) + CN(C)c1ccc(Nc2c3ccc(NC(=O)CCN4CCCC4)cc3nc3cc(NC(=O)CCN4CCCC4)ccc23)cc1 | > 10 µM
24 | Cn1ncnc1[C@H]1c2n[nH]c(=O)c3cc(F)cc(c23)N[C@@H]1c1ccc(F)cc1 + CN(C)c1ccc(Nc2c3ccc(NC(=O)CCN4CCCC4)cc3nc3cc(NC(=O)CCN4CCCC4)ccc23)cc1 | > 0.316 µM
25 | O=C(c1cc(Cc2n[nH]c(=O)c3ccccc23)ccc1F)N1CCN(C(=O)C2CC2)CC1 + CN(C)c1ccc(Nc2c3ccc(NC(=O)CCN4CCCC4)cc3nc3cc(NC(=O)CCN4CCCC4)ccc23)cc1 | > 10 µM

Same assay, conditions: curve of first compound; second compound 10 µM; spheroids with HUVEC and MSC

Row | Structure (SMILES) | IC50
26 | C=CC(=O)N1CCN(c2nc(=O)n(-c3c(C)ccnc3C(C)C)c3nc(-c4c(O)cccc4F)c(F)cc23)C(C)C1 (stereo unspecified) + CN(C)c1ccc(Nc2c3ccc(NC(=O)CCN4CCCC4)cc3nc3cc(NC(=O)CCN4CCCC4)ccc23)cc1 | > 10 µM
